Patent publication US8921410B2, “Nicotinic acetylcholine receptor sub-type selective amides of diazabicycloalkanes” (Targacept, Inc., priority 2006, dated 2014)
Where two headings read alike, the source gives them in different places.

How the values were obtained:
α7 nAChR subtype = α7 nAChR subtype (Rattus norvegicus (Rat), UniProt Q05941); experiment: Radioligand ([3H]MLA) binding at α7 nAChR, rat hippocampus membranes; settings: for Ki: [3H]MLA 5 nM, rat hippocampus membranes
Procedure: Rats (female, Sprague-Dawley), weighing 150-250 g, were maintained on a 12 h light/dark cycle and were allowed free access to water and food supplied by PMI Nutrition International, Inc. Animals were anesthetized with 70% CO2, then decapitated. Brains were removed and placed on an ice-cold platform. […] The homogenate was centrifuged at 18,000×g for 20 min at 4° C. and the resulting pellet was re-suspended in 10 volumes of ice-cold water. After 60 min incubation on ice, a new pellet was collected by centrifugation at 18,000×g for 20 min at 4° C. The final pellet was re-suspended in 10 volumes of buffer and stored at −20° C.
The binding of [^3H]MLA was measured using a modification of the methods of Davies et al., Neuropharmacol. […] [^3H]MLA (Specific Activity=25-35 Ci/mmol) was obtained from Tocris. The binding of [^3H]MLA was determined using a 2 h incubation at 21° C. Incubations were conducted in 48-well micro-titre plates and contained about 200 μg of protein per well in a final incubation volume of 300 μL. The incubation buffer was PBS and the final concentration of [^3H]MLA was 5 nM. The binding reaction was terminated by filtration of the protein containing bound ligand onto glass fiber filters (GF/B, Brandel) using a Brandel Tissue Harvester at room temperature. […] Each filter was washed with PBS (3×1 mL) at room temperature. Non-specific binding was determined by inclusion of 50 μM non-radioactive MLA in selected wells.
The inhibition of [^3H]MLA binding by test compounds was determined by including seven different concentrations of the test compound in selected wells. Each concentration was replicated in triplicate. IC50 values were estimated as the concentration of compound that inhibited 50 percent of specific [^3H]MLA binding.

rat α4β2 nAChR subtype = rat α4β2 nAChR subtype (Rattus norvegicus (Rat), UniProt P09483+P12390); experiment: Radioligand ([3H]nicotine) binding at α4β2 nAChR, rat cortex membranes; settings: [3H]nicotine 5 nM, rat cortex membranes
Procedure: Preparation of Membranes from Rat Cortex:
Rats (female, Sprague-Dawley), weighing 150-250 g, were maintained on a 12 h light/dark cycle and were allowed free access to water and food supplied by PMI Nutrition International, Inc. Animals were anesthetized with 70% CO2, and then decapitated. Brains were removed and placed on an ice-cold platform. […] The homogenate was centrifuged at 18,000×g for 20 min at 4° C. and the resulting pellet was re-suspended in 20 volumes of ice-cold water. After 60 min incubation on ice, a new pellet was collected by centrifugation at 18,000×g for 20 min at 4° C. The final pellet was re-suspended in 10 volumes of buffer and stored at −20° C.
(§1) On the day of the assay, the frozen membranes were thawed and spun at 48,000×g for 20 min. The supernatant was decanted and discarded. The pellet was resuspended in Dulbecco's phosphate buffered saline (PBS, Life Technologies) pH 7.4 and homogenized with the Polytron for 6 seconds. Protein concentrations were determined using a Pierce BCA Protein Assay Kit, with bovine serum albumin as the standard (Pierce Chemical Company, Rockford, Ill.).
(§2) Tissue was rinsed 3 times in PBS, pH 7.4. Scintillation fluid was added to filters containing the washed tissue and allowed to equilibrate.
(§3) Data were expressed as disintegrations per minute (DPMs). Within each assay, each point had 2-3 replicates. The replicates for each point were averaged and plotted against the log of the drug concentration.

human α4β2 nAChR subtype = human α4β2 nAChR subtype (Homo sapiens (Human), UniProt P17787+P43681); experiment: Radioligand ([3H]nicotine) binding at α4β2 nAChR, SH-EP1/human α4β2 clonal cell membranes; settings: read-out: Human α4β2 Ki
Procedure: Preparation of Membranes from SH-EP1/Human α4β2 Clonal Cells:
Cell pellets from 40 150 mm culture dishes were pooled, and homogenized by Polytron (Kinematica GmbH, Switzerland) in 20 milliliters of ice-cold preparative buffer. The homogenate was centrifuged at 48,000 g for 20 minutes at 4° C. The resulting pellet was re-suspended in 20 mL of ice-cold preparative buffer and stored at −20° C.
as §1, §2, §3

[1] = did not bind sufficiently in HTS at α7 to warrant Ki determination
[2] = [3H]nicotine 5 nM, SH-EP1/human α4β2 membranes

Sequence of rat α4β2 nAChR subtype (P09483 31-630): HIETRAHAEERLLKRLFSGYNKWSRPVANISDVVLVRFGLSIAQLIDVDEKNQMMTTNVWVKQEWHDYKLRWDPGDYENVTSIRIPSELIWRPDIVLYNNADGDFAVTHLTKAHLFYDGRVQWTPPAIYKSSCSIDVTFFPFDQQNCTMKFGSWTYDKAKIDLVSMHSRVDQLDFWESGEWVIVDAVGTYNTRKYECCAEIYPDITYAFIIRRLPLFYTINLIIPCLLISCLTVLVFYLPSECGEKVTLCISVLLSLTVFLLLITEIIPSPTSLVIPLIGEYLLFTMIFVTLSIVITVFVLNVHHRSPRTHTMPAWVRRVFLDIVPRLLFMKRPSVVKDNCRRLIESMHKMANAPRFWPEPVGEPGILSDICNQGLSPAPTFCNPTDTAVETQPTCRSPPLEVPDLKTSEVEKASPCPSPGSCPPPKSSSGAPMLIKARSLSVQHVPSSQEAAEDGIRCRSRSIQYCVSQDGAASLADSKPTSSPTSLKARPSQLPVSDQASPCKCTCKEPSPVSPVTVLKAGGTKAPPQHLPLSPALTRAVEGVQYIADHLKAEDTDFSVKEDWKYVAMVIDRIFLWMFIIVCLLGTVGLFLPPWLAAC
Sequence of rat α4β2 nAChR subtype (P12390 25-500): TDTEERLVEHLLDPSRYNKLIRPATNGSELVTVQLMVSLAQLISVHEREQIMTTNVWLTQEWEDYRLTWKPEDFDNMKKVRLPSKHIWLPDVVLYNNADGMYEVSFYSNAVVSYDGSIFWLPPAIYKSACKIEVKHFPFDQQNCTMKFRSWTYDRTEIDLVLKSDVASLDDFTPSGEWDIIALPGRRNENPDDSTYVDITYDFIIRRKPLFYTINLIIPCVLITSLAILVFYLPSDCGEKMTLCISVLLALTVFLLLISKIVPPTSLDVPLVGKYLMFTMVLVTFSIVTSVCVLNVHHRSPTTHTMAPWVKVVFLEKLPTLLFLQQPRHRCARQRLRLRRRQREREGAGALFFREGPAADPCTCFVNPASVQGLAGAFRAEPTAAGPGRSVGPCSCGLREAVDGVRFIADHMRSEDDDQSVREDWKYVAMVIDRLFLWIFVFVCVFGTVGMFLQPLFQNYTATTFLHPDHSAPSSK
Sequence of human α4β2 nAChR subtype (P43681 29-627): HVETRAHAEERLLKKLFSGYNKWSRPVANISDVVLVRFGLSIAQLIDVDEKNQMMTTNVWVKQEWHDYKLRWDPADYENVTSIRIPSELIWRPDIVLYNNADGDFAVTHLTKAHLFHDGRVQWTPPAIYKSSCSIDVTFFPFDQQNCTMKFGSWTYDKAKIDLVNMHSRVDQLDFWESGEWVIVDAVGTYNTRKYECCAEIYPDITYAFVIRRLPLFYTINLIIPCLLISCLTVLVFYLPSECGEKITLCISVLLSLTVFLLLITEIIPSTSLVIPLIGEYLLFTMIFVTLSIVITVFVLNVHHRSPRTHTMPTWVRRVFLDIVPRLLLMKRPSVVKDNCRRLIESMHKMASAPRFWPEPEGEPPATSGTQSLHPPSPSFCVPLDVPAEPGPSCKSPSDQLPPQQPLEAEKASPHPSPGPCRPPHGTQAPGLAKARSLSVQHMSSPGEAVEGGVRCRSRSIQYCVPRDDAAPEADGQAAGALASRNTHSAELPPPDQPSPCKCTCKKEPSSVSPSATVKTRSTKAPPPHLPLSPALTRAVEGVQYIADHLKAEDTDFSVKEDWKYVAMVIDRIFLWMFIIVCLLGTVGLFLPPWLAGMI
Sequence of human α4β2 nAChR subtype (P17787 26-502): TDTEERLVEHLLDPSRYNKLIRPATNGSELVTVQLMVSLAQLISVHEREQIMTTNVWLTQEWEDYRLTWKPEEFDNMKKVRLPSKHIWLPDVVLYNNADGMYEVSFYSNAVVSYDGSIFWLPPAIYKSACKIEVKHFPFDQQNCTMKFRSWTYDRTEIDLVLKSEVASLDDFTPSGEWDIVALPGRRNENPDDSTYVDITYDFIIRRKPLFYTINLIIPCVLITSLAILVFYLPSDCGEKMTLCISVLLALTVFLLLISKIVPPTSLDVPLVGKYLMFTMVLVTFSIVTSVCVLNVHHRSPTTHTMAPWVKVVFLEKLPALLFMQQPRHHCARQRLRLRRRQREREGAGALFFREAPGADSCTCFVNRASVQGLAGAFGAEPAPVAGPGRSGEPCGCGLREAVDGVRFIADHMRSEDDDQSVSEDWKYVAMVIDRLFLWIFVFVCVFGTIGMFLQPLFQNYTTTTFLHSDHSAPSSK
Sequence of α7 nAChR subtype (Q05941 23-502): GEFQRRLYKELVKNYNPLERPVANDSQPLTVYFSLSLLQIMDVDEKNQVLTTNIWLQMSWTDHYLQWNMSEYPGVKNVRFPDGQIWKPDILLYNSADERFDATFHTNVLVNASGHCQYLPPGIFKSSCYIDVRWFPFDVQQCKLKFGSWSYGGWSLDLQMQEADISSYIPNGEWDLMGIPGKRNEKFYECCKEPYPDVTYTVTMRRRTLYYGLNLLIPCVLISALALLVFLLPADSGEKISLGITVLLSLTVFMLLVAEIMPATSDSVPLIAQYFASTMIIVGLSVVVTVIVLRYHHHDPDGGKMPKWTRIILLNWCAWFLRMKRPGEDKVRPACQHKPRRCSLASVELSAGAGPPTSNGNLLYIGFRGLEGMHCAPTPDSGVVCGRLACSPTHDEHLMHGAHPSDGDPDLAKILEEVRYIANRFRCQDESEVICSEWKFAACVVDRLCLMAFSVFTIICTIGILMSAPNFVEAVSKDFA

| SMILES | α7 high through-put screening outcome (Ki not determined) (α7 nAChR subtype; [1]) | Ki (rat α4β2 nAChR subtype) [nM] | Ki (human α4β2 nAChR subtype; [2]) [nM] | Ki (α7 nAChR subtype) [nM] | α7 high through-put screening outcome (Ki not determined) (α7 nAChR subtype) | Ki (human α4β2 nAChR subtype) [nM] |
| --- | --- | --- | --- | --- | --- | --- |
| O=C(c1ccncc1)N1CC2CNCC2C1 (stereo not drawn) | ND; failed HTS | 26 | 160 | – | – | – |
| O=C(c1cc(Br)co1)N1CC2CNCC2C1 (stereo not drawn) | ND; failed HTS | 29 | 18 | – | – | – |
| COc1coc(C(=O)N2CC3CNCC3C2)c1OC (stereo not drawn) | ND; failed HTS | 140 | 40 | – | – | – |
| O=C(c1cc(-c2cc(F)cc(F)c2)co1)N1CC2CNCC2C1 (stereo not drawn) | ND; failed HTS | 54 | 24 | – | – | – |
| O=C(c1cc(-c2ccccc2)co1)N1CC2CNCC2C1 (stereo not drawn) | – | 260 | 86 | 12000 | – | – |
| O=C(c1cc(-c2ccoc2)co1)N1CC2CNCC2C1 (stereo not drawn) | ND; failed HTS | 110 | 95 | – | – | – |
| Cc1cc(C(=O)N2CC3CNCC3C2)no1 (stereo not drawn) | ND; failed HTS | 150 | 84 | – | – | – |
| Cc1ncoc1C(=O)N1CC2CNCC2C1 (stereo not drawn) | – | 15 | 9.2 | 210000 | – | – |
| Cc1nocc1C(=O)N1CC2CNCC2C1 (stereo not drawn) | – | 24 | 14 | 56000 | – | – |
| Cc1cc(C(=O)N2CC3CNCC3C2)on1 (stereo not drawn) | ND; failed HTS | 32 | 31 | – | – | – |
| Cc1occc1C(=O)N1CC2CNCC2C1 (stereo not drawn) | – | 61 | 29 | 160000 | – | – |
| O=CNc1ccc(C(=O)N2CC3CNCC3C2)o1 (stereo not drawn) | ND; failed HTS | 53 | 63 | – | – | – |
| COc1ccoc1C(=O)N1CC2CNCC2C1 (stereo not drawn) | ND; failed HTS | 353 | 100 | – | – | – |
| Cc1cc(C(F)(F)F)c(C(=O)N2CC3CNCC3C2)o1 (stereo not drawn) | ND; failed HTS | 1000 | 45 | – | – | – |
| O=C(c1cc(C(F)(F)F)co1)N1CC2CNCC2C1 (stereo not drawn) | ND; failed HTS | 320 | 36 | – | – | – |
| C=Cc1ccoc1C(=O)N1CC2CNCC2C1 (stereo not drawn) | ND; failed HTS | 140 | 51 | – | – | – |
| CCCCC#Cc1coc(C(=O)N2CC3CNCC3C2)c1 (stereo not drawn) | ND; failed HTS | 43 | 21 | – | – | – |
| O=C(c1occc1Cl)N1CC2CNCC2C1 (stereo not drawn) | ND; failed HTS | 2.8 | 2.4 | – | – | – |
| O=C(c1ccc(F)o1)N1CC2CNCC2C1 (stereo not drawn) | ND; failed HTS | 8.3 | 16 | – | – | – |
| O=C(c1occc1F)N1CC2CNCC2C1 (stereo not drawn) | – | 35 | 27 | – | ND; failed HTS | – |

| SMILES | α7 high through-put screening outcome (Ki not determined) (α7 nAChR subtype; [1]) | Ki (rat α4β2 nAChR subtype) [nM] | Ki (human α4β2 nAChR subtype; [2]) [nM] | Ki (α7 nAChR subtype) [nM] | α7 high through-put screening outcome (Ki not determined) (α7 nAChR subtype) | Ki (human α4β2 nAChR subtype) [nM] |
| --- | --- | --- | --- | --- | --- | --- |
| O=C(c1cc(Cl)co1)N1CC2CNCC2C1 (stereo not drawn) | ND; failed HTS | 21 | 9.7 | – | – | – |
| O=C(c1ccon1)N1CC2CNCC2C1 (stereo not drawn) | ND; failed HTS | 89 | 90 | – | – | – |
| O=C(c1cc(F)co1)N1CC2CNCC2C1 (stereo not drawn) | ND; failed HTS | 36 | 21 | – | – | – |
| C#Cc1ccc(C(=O)N2CC3CNCC3C2)o1 (stereo not drawn) | ND; failed HTS | 140 | 48 | – | – | – |
| N#Cc1ccc(C(=O)N2CC3CNCC3C2)o1 (stereo not drawn) | ND; failed HTS | 50 | – | – | – | 40 |
| O=C(c1ccno1)N1CC2CNCC2C1 (stereo not drawn) | – | 43 | 69 | – | ND; failed HTS | – |
| O=C(c1occc1Br)N1CC2CNCC(C2)C1 | ND; failed HTS | 79 | – | – | – | 17 |
| Cc1ccc(C(=O)N2CC3CNCC(C3)C2)o1 | – | 100 | 42 | – | ND; failed HTS | – |
| O=C(c1cc(Br)no1)N1CC2CNCC(C2)C1 | ND; failed HTS | 5.9 | – | – | – | 18 |
| CC(=O)Nc1ccc(C(=O)N2CC3CNCC(C3)C2)o1 | ND; failed HTS | 87 | 210 | – | – | – |
| Cc1ncoc1C(=O)N1CC2CNCC(C2)C1 | ND; failed HTS | 20 | 64 | – | – | – |
| Cc1nocc1C(=O)N1CC2CNCC(C2)C1 | ND; failed HTS | 9.5 | 21 | – | – | – |
| O=C(c1ccc(F)o1)N1CC2CNCC(C2)C1 | ND; failed HTS | 6.4 | – | – | – | 4.6 |
| O=C(c1cc(-c2cc(F)cc(F)c2)co1)N1CC2CNCC(C2)C1 | ND; failed HTS | 6.3 | 23 | – | – | – |
| O=C(c1cc(-c2ccoc2)co1)N1CC2CNCC(C2)C1 | ND; failed HTS | 12 | 35 | – | – | – |
| O=C(c1occc1F)N1CC2CNCC(C2)C1 | ND; failed HTS | 110 | 57 | – | – | – |
| N#Cc1ccoc1C(=O)N1CC2CNCC(C2)C1 | ND; failed HTS | 110 | 31 | – | – | – |
| COc1ccoc1C(=O)N1CC2CNCC(C2)C1 | ND; failed HTS | 560 | – | – | – | 28 |
| O=C(c1cnco1)N1CC2CNCC(C2)C1 | ND; failed HTS | 28 | 26 | – | – | – |
